Laboratory results as given in patent US9060541B2, “Sterilizer for foods” (Kawakami Co., Ltd., priority 2009, dated 2015).
Read-outs that look alike come from different tables or passages of the source.

Legend:
Type in all cases: cell-based
Parameters in all cases: key: D: There is no sterilization effect.; C: There is a sterilization effect in step (1) but no sterilization effect in step (2).; B: There is a sterilization effect up to step (2) but no sterilization effect in step (3).; A: There is a sterilization effect up to step (3)
[1] = tested on: Vibrio cholerae O139 MO45
[2] = tested on: Shigella boydii serotype 4 KX-H288; assay: Comparison test of sterilization effects against various food poisoning microbes
[3] = tested on: Enteropathogenic Escherichia coli O55 KX-E59; assay: as above
[4] = tested on: Vibrio cholerae non-O1 non-O139 KX-N105
[5] = tested on: Shigella sonnei KX-H285; assay: Comparison test of sterilization effects against various food poisoning microbes
[6] = tested on: Salmonella serotype Krefeld KX-S124; assay: as above
[7] = tested on: Plesiomonas shigelloides KX-P1945; assay: as above
[8] = tested on: Salmonella serotype Kentucky KX-S149; assay: as above
[9] = tested on: Salmonella serotype Stanley KX-S141; assay: as above
[10] = tested on: Salmonella serotype Anatum KX-S152; assay: as above
[11] = tested on: Vibrio fluvialis KX-F24; assay: as above
[12] = tested on: Staphylococcus aureus 080392-1 Toxin type A; assay: as above
[13] = tested on: Vibrio cholerae O1 NIH 41
[14] = tested on: Bacillus cereus Kyoto 1; assay: Comparison test of sterilization effects against various food poisoning microbes
[15] = tested on: Enteroinvasive Escherichia coli O28ac KX-E63; assay: as above
[16] = Table 7, test microbe solution without yeast extract
[17] = Table 8, yeast extract 4 weight % blended in test microbe solution

Measured: Sterilization effect

CCO [EtOH 30%, ethanol]
D: [2]; [16] | [2]; [17] | [3]; [16] | [3]; [17] | [12]; [17] | [14]; [17]
C: [1]; [17] | [4]; [16] | [4]; [17] | [5]; [16] | [5]; [17] | [6]; [16] | [6]; [17] | [8]; [16] | [8]; [17] | [9]; [16] | [9]; [17] | [10]; [16] | [10]; [17] | [11]; [16] | [11]; [17] | [13]; [17] | [14]; [16] | [15]; [16] | [15]; [17]
B: [1]; [16] | [7]; [16] | [7]; [17] | [12]; [16] | [13]; [16]

[Na+].[O-]Cl [S.H 150 ppm, sodium hypochlorite]
C: [7]; [17]
D: [1]; [17] | [2]; [17] | [3]; [17] | [4]; [17] | [5]; [17] | [6]; [17] | [8]; [17] | [9]; [17] | [10]; [17] | [11]; [17] | [12]; [17] | [13]; [17] | [14]; [17] | [15]; [17]
A: [1]; [16] | [2]; [16] | [3]; [16] | [4]; [16] | [5]; [16] | [6]; [16] | [7]; [16] | [8]; [16] | [9]; [16] | [10]; [16] | [11]; [16] | [12]; [16] | [13]; [16] | [14]; [16] | [15]; [16]
